# Key:
# HEK-293T [1] = test: Cytotoxicity against human HEK293T cells after 48 hrs by MTT assay in presence of 10% FBS; type: cell-based
# HEK-293T [2] = test: Cytotoxicity against human HEK293T cells after 48 hrs by MTT assay in absence of 10% FBS; type: cell-based
# PC-3 [3] = test: Cytotoxicity against human PC3 cells after 48 hrs by MTT assay in presence of 10% FBS; type: functional, cell-based; conditions: PC-3, 48 h
# [4] = Cytotoxicity against human castration-resistant C4-2 cells after 48 hrs by MTT assay in absence of 10% FBS; type: functional, cell-based; conditions: LNCaP C4-2, 48 h
# Bacillus subtilis [5] = test: Antibacterial activity against Bacillus subtilis MTCC 121 after 18 to 24 hrs by agar well diffusion method; type: functional
# LNCaP [6] = test: Cytotoxicity against human LNCAP cells after 48 hrs by MTT assay in absence of 10% FBS; type: functional, cell-based
# Pseudomonas putida [7] = test: Antibacterial activity against Pseudomonas putida MTCC 102 after 18 to 24 hrs by agar well diffusion method; type: functional
# MDA-MB-231 [8] = test: Cytotoxicity against human MDA-MB-231 cells after 48 hrs by MTT assay in absence of 10% FBS; type: functional, cell-based; conditions: MDA-MB-231, 48 h
# Bacillus subtilis [9] = test: Antibacterial activity against Bacillus subtilis MTCC 121 after 18 to 24 hrs by broth microdilution method; type: functional
# Escherichia coli [10] = test: Antibacterial activity against Escherichia coli MTCC 1652 after 18 to 24 hrs by broth microdilution method; type: functional
# [11] = Cytotoxicity against human castration-resistant C4-2 cells after 48 hrs by MTT assay in presence of 10% FBS; type: functional, cell-based; conditions: LNCaP C4-2, 48 h
# HeLa [12] = test: Cytotoxicity against human HeLa cells after 48 hrs by MTT assay in absence of 10% FBS; type: functional, cell-based
# Pseudomonas putida [13] = test: Antibacterial activity against Pseudomonas putida MTCC 102 after 18 to 24 hrs by broth microdilution method; type: functional
# Staphylococcus aureus [14] = test: Antibacterial activity against Staphylococcus aureus MTCC 96 after 18 to 24 hrs by broth microdilution method; type: functional
# MDA-MB-231 [15] = test: Cytotoxicity against human MDA-MB-231 cells after 48 hrs by MTT assay in presence of 10% FBS; type: functional, cell-based; conditions: MDA-MB-231, 48 h
# PC-3 [16] = test: Cytotoxicity against human PC3 cells after 48 hrs by MTT assay in absence of 10% FBS; type: functional, cell-based; conditions: PC-3, 48 h
# HeLa [17] = test: Cytotoxicity against human HeLa cells after 48 hrs by MTT assay in presence of 10% FBS; type: functional, cell-based
# Staphylococcus aureus [18] = test: Antibacterial activity against Staphylococcus aureus MTCC 96 after 18 to 24 hrs by agar well diffusion method; type: functional
# Escherichia coli [19] = test: Antibacterial activity against Escherichia coli MTCC 1652 after 18 to 24 hrs by agar well diffusion method; type: functional
# LNCaP [20] = test: Cytotoxicity against human LNCAP cells after 48 hrs by MTT assay in presence of 10% FBS; type: functional, cell-based
# [21] = Solubility of the compound in 0.05 to 0.1% DMSO; type: physicochemical
SMILES,IC50 (HEK-293T [1]) [µM],IC50 (HEK-293T [2]) [µM],IC50 (PC-3 [3]) [µM],IC50 [4] [µM],inhibition zone (IZ) (Bacillus subtilis [5]) [mm],IC50 (LNCaP [6]) [µM],inhibition zone (IZ) (Pseudomonas putida [7]) [mm],IC50 (MDA-MB-231 [8]) [µM],MIC (Bacillus subtilis [9]) [µg/mL],MIC (Escherichia coli [10]) [µg/mL],IC50 [11] [µM],IC50 (HeLa [12]) [µM],MIC (Pseudomonas putida [13]) [µg/mL],MIC (Staphylococcus aureus [14]) [µg/mL],IC50 (MDA-MB-231 [15]) [µM],IC50 (PC-3 [16]) [µM],IC50 (HeLa [17]) [µM],inhibition zone (IZ) (Staphylococcus aureus [18]) [mm],inhibition zone (IZ) (Escherichia coli [19]) [mm],IC50 (LNCaP [20]) [µM],also measured
COc1cc(NC(=O)c2csc(-c3cn(Cc4ccc(Cl)cc4)c4ccccc34)n2)cc(OC)c1OC,> 100,58.7,> 100,> 100,12,97.7,14,> 100,100,50,> 100,91.4,100,100,> 100,> 100,> 100,13,15,> 100,–
COc1cc(NC(=O)c2csc(-c3c[nH]c4ccccc34)n2)cc(OC)c1OC,–,–,–,–,14,–,13,–,50,50,–,–,100,100,–,–,–,12,14,–,solubility [21]: Insoluble
O=C(Nc1ccc(F)cc1)c1csc(-c2c[nH]c3ccccc23)n1,–,–,–,–,10,–,12,–,100,100,–,–,100,100,–,–,–,12,13,–,solubility [21]: Insoluble
COc1cc(NC(=O)c2csc(-c3c[nH]c4ccc(F)cc34)n2)cc(OC)c1OC,66,> 100,> 100,> 100,10,> 100,14,> 100,100,50,> 100,> 100,50,100,> 100,89,48.9,12,14,88.5,–
O=C(Nc1ccccc1)c1csc(-c2c[nH]c3ccccc23)n1,> 100,41.1,> 100,> 100,–,> 100,13,79.4,–,100,> 100,> 100,100,50,> 100,> 100,> 100,14,13,> 100,–
COc1ccc(NC(=O)c2csc(-c3c[nH]c4ccc(F)cc34)n2)cc1,> 100,12.1,> 100,> 100,13,66.4,13,49.4,100,50,> 100,3.41,100,100,> 100,> 100,33.5,12,14,75.4,–
Cc1ccc(NC(=O)c2csc(-c3c[nH]c4ccccc34)n2)cc1,> 100,> 100,> 100,> 100,–,> 100,12,> 100,–,100,> 100,> 100,100,–,> 100,> 100,> 100,–,12,> 100,–
O=C(NCc1ccccc1)c1csc(-c2c[nH]c3ccccc23)n1,74.5,> 100,> 100,> 100,–,> 100,13,> 100,–,100,> 100,9.51,100,–,> 100,> 100,41.4,–,13,> 100,–

# From ChEMBL document CHEMBL3616377, “2-(3'-Indolyl)-N-arylthiazole-4-carboxamides: Synthesis and evaluation of antibacterial and anticancer activities” (Bioorg Med Chem Lett, 2015)
